Experimental findings from PubChem BioAssay (NCI) are described below.

Test systems include A549 NSCLC; CCRF-CEM leukemia; DU-145 prostate; HCT-15 colon; HT29 colon; MDA-MB-435; SK-MEL-2 melanoma; SK-MEL-28 melanoma; K-562 leukemia; NCI-H522 lung.
What all share (experiment): inhibition of tumour cell growth, NCI panel, 48 h

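Values below derive from 48-hour exposures of cells grown in 96-well plates, with endpoints linearly interpolated between the two concentrations bracketing the appropriate inhibition level. At the GI50, growth is halved. The concentration for full growth arrest is given as TGI.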

On to `COc1ccc(C2=CC(c3ccc4c(c3)OCO4)c3c(c4ccccc4oc3=O)O2)cc1OC` (centres undefined), for which the TGI was greater than 100 µM in the assay with A549 NSCLC; greater than 100 µM with CCRF-CEM leukemia; greater than 100 µM in the assay on DU-145 prostate; greater than 31.6 µM with HCT-15 colon; greater than 100 µM in the assay with HT29 colon; 9.25 µM in the assay with MDA-MB-435. Also, the TGI in the assay with SK-MEL-2 melanoma and in the assay on SK-MEL-28 melanoma was greater than 100 µM in each case.

In the case of `COc1cc([N+](=O)[O-])c(OC)cc1-c1nc2sc(Cl)cn2c1/C(N)=N/C(=N)N`, the GI50 was 18.4 µM in the assay on A549 NSCLC; 7.2 µM in the assay on DU-145 prostate; 65 µM with HCT-15 colon; 3.02 µM in the assay on HT29 colon; 2.01 µM with K-562 leukemia; 1.9 µM in the assay with MDA-MB-435. Further, in the assay on NCI-H522 lung, the GI50 was 2.35 µM. For the same compound, the TGI in the assay on A549 NSCLC was greater than 53 µM; in the assay with DU-145 prostate, 27.9 µM; with HCT-15 colon it was greater than 100 µM; in the assay on HT29 colon, greater than 100 µM; in the assay with K-562 leukemia, greater than 100 µM; in the assay on MDA-MB-435, 4.64 µM. In the assay on NCI-H522 lung, this compound registered a TGI of 5.49 µM.

As for `O=C1c2ccccc2C(O)(O)C1(O)C1(O)C(=O)c2ccccc2C1(O)O` (centres undefined), the TGI is greater than 100 µM with A549 NSCLC; 44.7 µM in the assay with CCRF-CEM leukemia; greater than 100 µM with DU-145 prostate; 44.1 µM with HCT-15 colon; greater than 100 µM in the assay on HT29 colon; 32.8 µM with MDA-MB-435. Further, the TGI was 44.5 µM in the assay on NCI-H522 lung, greater than 100 µM in the assay on SK-MEL-2 melanoma and greater than 100 µM in the assay on SK-MEL-28 melanoma.

As for `CC(C)(C)n1cc(-c2ccnc(NCCCNS(=O)(=O)c3ccc(C(F)(F)F)cc3)c2)c(-c2cccc(O)c2)n1`, the GI50 is 2.02 µM in the assay on A549 NSCLC; 1.94 µM in the assay on DU-145 prostate; 1.47 µM in the assay on HCT-15 colon; 2.1 µM in the assay on K-562 leukemia; 1.81 µM in the assay on MDA-MB-435; 1.99 µM in the assay with NCI-H522 lung. Also, the GI50 in the assay with SK-MEL-2 melanoma is 2.1 µM; in the assay with SK-MEL-28 melanoma it was 1.75 µM. The TGI with A549 NSCLC was 4.58 µM; in the assay with DU-145 prostate it was 3.58 µM; in the assay on HCT-15 colon, 2.93 µM; in the assay with K-562 leukemia it was greater than 100 µM; in the assay on MDA-MB-435, 3.35 µM; with NCI-H522 lung, 3.98 µM. For the same compound, the TGI turned out to be 3.95 µM with SK-MEL-2 melanoma and 3.25 µM in the assay with SK-MEL-28 melanoma.

`COc1ccc2nc3cccc([N+](=O)[O-])c3c(NCCCCCC(=O)O)c2c1`: the GI50 in the assay with A549 NSCLC is 0.12 µM; in the assay with CCRF-CEM leukemia, 0.0397 µM; in the assay with DU-145 prostate it was 0.043 µM; in the assay with HCT-15 colon, 0.0251 µM; in the assay on HT29 colon, 0.014 µM; in the assay with K-562 leukemia, 0.0109 µM. The values for the GI50 with NCI-H522 lung, in the assay on SK-MEL-2 melanoma and in the assay with SK-MEL-28 melanoma were 0.0363 µM, 0.0342 µM and 0.159 µM, respectively. The TGI turned out to be 2.17 µM in the assay with A549 NSCLC; 0.302 µM in the assay with CCRF-CEM leukemia; 1.02 µM with DU-145 prostate; 0.392 µM in the assay on HT29 colon; 0.0251 µM in the assay on K-562 leukemia; 0.101 µM with NCI-H522 lung. Besides, the TGI was 0.117 µM in the assay with SK-MEL-2 melanoma and 0.548 µM with SK-MEL-28 melanoma.

As to `CC(C)(C)c1ccc(Oc2nccc(-c3c(-c4ccc(F)cc4)ncn3C3CCNCC3)n2)cc1`, the GI50 is 3.55 µM in the assay on A549 NSCLC; 3.71 µM in the assay with DU-145 prostate; 3.23 µM in the assay on HCT-15 colon; 1.03 µM in the assay on HT29 colon; 0.849 µM in the assay on K-562 leukemia; 3.53 µM in the assay with MDA-MB-435. The GI50 in the assay with NCI-H522 lung is 4.69 µM; in the assay on SK-MEL-2 melanoma it was 5.21 µM; with SK-MEL-28 melanoma, 4.29 µM. For the same compound, the TGI came out at 6.9 µM in the assay on A549 NSCLC; 7.06 µM in the assay on DU-145 prostate; 6.68 µM in the assay on HCT-15 colon; 4.17 µM in the assay with HT29 colon; 4.7 µM in the assay on K-562 leukemia; 7.04 µM in the assay with MDA-MB-435. In addition, the figures for the TGI in the assay with NCI-H522 lung, in the assay on SK-MEL-2 melanoma and in the assay with SK-MEL-28 melanoma were 8.58 µM, 9.1 µM and 8.06 µM, respectively.

As to `O=C(O)C(/C=C/c1ccccc1)c1ccccc1` (centres undefined), the TGI in the assay with A549 NSCLC, in the assay on CCRF-CEM leukemia, in the assay on DU-145 prostate, in the assay with HCT-15 colon, in the assay with HT29 colon and with K-562 leukemia was greater than 100 µM each time. Besides, the TGI in the assay on NCI-H522 lung, in the assay on SK-MEL-2 melanoma and in the assay with SK-MEL-28 melanoma was greater than 100 µM each time.

Take `COc1cc(NC(C)CCCNC2CN3CCC2CC3)c2ncccc2c1` (centres undefined): the GI50 with A549 NSCLC is 12.9 µM; with CCRF-CEM leukemia, 19 µM; in the assay on DU-145 prostate, 16.4 µM; with HCT-15 colon, 11.5 µM; with HT29 colon it was 3.7 µM; with MDA-MB-435, 8.71 µM. The values for the GI50 in the assay on SK-MEL-2 melanoma and in the assay on SK-MEL-28 melanoma were 23.3 µM and 11.3 µM, respectively. For the same compound, the TGI in the assay on A549 NSCLC was 27.5 µM; in the assay on CCRF-CEM leukemia it was greater than 100 µM; in the assay on DU-145 prostate, 30.2 µM; with HCT-15 colon, 27.3 µM; in the assay with HT29 colon it was 14 µM; in the assay on MDA-MB-435, 22 µM. Moreover, the TGI was 52.4 µM in the assay on SK-MEL-2 melanoma and 23.7 µM in the assay with SK-MEL-28 melanoma.

Regarding `COC(=O)C1(C)CCC(c2ccc(C)cc2)=C(CC(=O)O)C1` (centres undefined), the TGI in the assay on A549 NSCLC, in the assay on DU-145 prostate, with HCT-15 colon, in the assay with HT29 colon, with K-562 leukemia and in the assay on MDA-MB-435 was greater than 100 µM throughout. Besides, the TGI with NCI-H522 lung, in the assay on SK-MEL-2 melanoma and in the assay with SK-MEL-28 melanoma was greater than 100 µM each time.

With `Fc1ccc2c(c1)C1=NN(c3ccccc3)C(F)C1CO2` (centres undefined), the GI50 is 7.96 µM with A549 NSCLC; 5.18 µM in the assay with DU-145 prostate; 8.19 µM with HCT-15 colon; 10 µM with HT29 colon; 17.6 µM in the assay with K-562 leukemia; 6.7 µM in the assay with MDA-MB-435. Also, the figures for the GI50 in the assay on NCI-H522 lung, in the assay with SK-MEL-2 melanoma and in the assay with SK-MEL-28 melanoma were greater than 50 µM, 19.4 µM and 9.51 µM, respectively. The TGI in the assay on A549 NSCLC was 23.9 µM; in the assay with DU-145 prostate it was 21.8 µM; in the assay with HCT-15 colon, 19.9 µM; in the assay with HT29 colon it was 26.3 µM; in the assay on K-562 leukemia it was greater than 50 µM; with MDA-MB-435, 15.9 µM. In addition, the TGI with NCI-H522 lung is greater than 50 µM; with SK-MEL-2 melanoma, greater than 50 µM; in the assay with SK-MEL-28 melanoma it was 22 µM.
